Residues, ends and D or L forms follow the SMILES beside them.

One experiment addresses T1, Kallikrein 1 (Sus scrofa) (UniProt O97506).
T1 sequence (whole entry): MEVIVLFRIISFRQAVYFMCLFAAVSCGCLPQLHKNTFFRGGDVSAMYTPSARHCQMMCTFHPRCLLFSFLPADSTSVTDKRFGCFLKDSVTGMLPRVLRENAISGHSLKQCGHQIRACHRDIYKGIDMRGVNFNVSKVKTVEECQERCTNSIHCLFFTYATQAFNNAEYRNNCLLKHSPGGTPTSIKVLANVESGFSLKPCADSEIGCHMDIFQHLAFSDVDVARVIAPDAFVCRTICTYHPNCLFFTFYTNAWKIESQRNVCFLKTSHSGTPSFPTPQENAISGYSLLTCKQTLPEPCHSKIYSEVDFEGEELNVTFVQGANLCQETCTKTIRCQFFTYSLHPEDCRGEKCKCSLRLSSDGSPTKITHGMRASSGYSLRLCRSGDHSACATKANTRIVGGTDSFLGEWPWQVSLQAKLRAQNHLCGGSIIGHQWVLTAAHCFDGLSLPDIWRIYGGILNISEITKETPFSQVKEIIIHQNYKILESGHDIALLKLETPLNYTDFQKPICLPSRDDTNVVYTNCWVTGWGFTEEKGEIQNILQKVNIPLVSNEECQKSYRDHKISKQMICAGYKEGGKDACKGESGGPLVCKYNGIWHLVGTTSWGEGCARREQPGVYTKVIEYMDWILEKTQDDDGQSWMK
Briefly: Compound was evaluated for inhibitory activity against beta-kallikrein; No inhibition at 0.5 mM concentration.
As to `CC(=O)N[C@@H](CCCN=C(N)N)C(=O)N[C@@H](CO)C(N)=O` (Ac-Arg-Ser-NH2), the inhibition result is “No inhibition”.

`CC(=O)N[C@@H](CCCN=C(N)N)C(=O)N[C@@H](CO)C(=O)N[C@H](C(N)=O)C(C)C` (Ac-Arg-Ser-Val-NH2): the inhibition result is “No inhibition”.

For the compound `CC(=O)N1CCC[C@H]1C(=O)N[C@@H](Cc1ccccc1)C(=O)N[C@@H](CCCN=C(N)N)C(N)=O` (Ac-Pro-Phe-Arg-NH2), the inhibition result was “No inhibition”.

Take `CC(=O)N[C@@H](CO)C(=O)N1CCC[C@H]1C(N)=O` (Ac-Ser-Pro-NH2): the inhibition entry is “No inhibition”.

As for `CC(=O)N[C@@H](CO)C(=O)N1CCC[C@H]1C(=O)N[C@@H](Cc1ccccc1)C(N)=O` (Ac-Ser-Pro-Phe-NH2), the inhibition entry was “No inhibition”.

On to `CC(=O)N[C@@H](CO)C(=O)N[C@H](C(N)=O)C(C)C` (Ac-Ser-Val-NH2), for which the inhibition result was “No inhibition”.

The target in a further experiment is T1, Kallikrein 1 (Sus scrofa). Briefly: Compound was evaluated for inhibitory activity against beta-kallikrein; No inhibition at 1 mM concentration.
As for `CC(=O)N[C@@H](Cc1ccccc1)C(=O)N[C@@H](CCCN=C(N)N)C(N)=O` (Ac-Phe-Arg-NH2), the inhibition entry is “No inhibition”.

On to `CC(=O)N1CCC[C@H]1C(=O)N[C@@H](Cc1ccccc1)C(N)=O` (Ac-Pro-Phe-NH2), for which the inhibition result was “No inhibition”.

The target in the next experiment is T1, Kallikrein 1 (Sus scrofa). Briefly: Compound was evaluated for inhibitory activity against beta-kallikrein; No inhibition at 20 mM concentration.
On to `CC(=O)N[C@@H](CO)C(=O)N[C@H](C(=O)N[C@@H](CCC(N)=O)C(N)=O)C(C)C` (Ac-Ser-Val-Gln-NH2), for which the inhibition result is “No inhibition”.

The target of the next experiment is T1, Kallikrein 1 (Sus scrofa). As to the kind of experiment: Compound was evaluated for inhibitory activity against beta-kallikrein; No inhibition at 28 mM concentration.
With `CC(=O)N[C@H](C(=O)N[C@@H](CCC(N)=O)C(N)=O)C(C)C` (Ac-Val-Gln-NH2), the inhibition result was “No inhibition”.

A further experiment deals with T2, Glandular kallikrein (Sus scrofa, UniProt P00752).
T2 sequence (P00752 whole entry): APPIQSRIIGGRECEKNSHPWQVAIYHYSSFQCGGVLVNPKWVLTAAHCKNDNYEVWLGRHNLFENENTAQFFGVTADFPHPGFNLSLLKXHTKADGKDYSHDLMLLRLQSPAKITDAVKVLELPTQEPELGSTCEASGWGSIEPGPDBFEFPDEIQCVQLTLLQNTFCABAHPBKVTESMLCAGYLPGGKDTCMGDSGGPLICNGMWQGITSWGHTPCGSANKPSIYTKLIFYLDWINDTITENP
Briefly: Inhibitory activity against beta-kallikrein.
In general, Ki refers to a measure of affinity in units of concentration, obtained from inhibition or displacement. Read a low Ki as tighter binding. As for `CC(=O)N[C@@H](Cc1ccccc1)C(=O)N[C@@H](CCCNC(=N)N)C(=O)N[C@@H](CO)C(=O)N[C@H](C(N)=O)C(C)C` (Ac-FRSV-NH2), the Ki came out at 479 µM.

The compound `CC(=O)N1CCC[C@H]1C(=O)N[C@@H](Cc1ccccc1)C(=O)N[C@@H](CCCN=C(N)N)C(=O)N[C@@H](CO)C(N)=O` (Ac-PFRS-NH2) returned a Ki of 578 µM.

Compound `CC(=O)N[C@@H](Cc1ccccc1)C(=O)N[C@@H](CCCNC(=N)N)C(=O)N[C@@H](CO)C(N)=O` (Ac-Phe-Arg-Ser-NH2) displayed an inhibition constant (Ki) of 718 µM.

Turning to `CC(=O)N[C@@H](CCCNC(=N)N)C(=O)N[C@@H](CO)C(=O)N[C@H](C(=O)N[C@@H](CCC(N)=O)C(N)=O)C(C)C` (Ac-RSVQ-NH2), the Ki came to 950 µM.

Regarding `CC(=O)N[C@@H](CO)C(=O)N1CCC[C@H]1C(=O)N[C@@H](Cc1ccccc1)C(=O)N[C@@H](CCCN=C(N)N)C(N)=O` (Ac-SPFR-NH2), the Ki came to 2290 µM.

With Ac-FRSVQ-NH2, the Ki was 230 µM.

As to Ac-PFRSV-NH2, the affinity corresponds to a Ki of 266 µM.

With Ac-PFRSVQ-NH2, the affinity, expressed as Ki, was 167 µM.

Turning to Ac-SPFRS-NH2, the Ki was found to be 223 µM.

Compound Ac-SPFRSV-NH2 returned a Ki of 135 µM.

In turn, Ac-SPFRSVQ-NH2 yielded a Ki of 101 µM. The Ki values of the last two compounds are within 1.5-fold of each other.

The values are drawn from ChEMBL document CHEMBL1126274, “Mapping the binding site of tissue kallikrein: preparation and testing of all possible substrate analog inhibitors homologous with the sequence of kininogen between Ser386 and Gln392” (J Med Chem, 1992).
